Laboratory results reported in PubChem BioAssay (NCI).
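Cells were grown in 96-well plates and exposed to each compound for 48 hours at five concentrations; endpoints were interpolated linearly between bracketing concentrations, or set to the highest concentration if not reached. GI50: concentration for 50% inhibition of growth. TGI: concentration producing complete growth inhibition.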

Tests used:
Test in all cases: NCI-60 cell line screen, 48 h
NCI-H226 lung = system: NCI-H226 lung
U251 CNS = system: U251 CNS
TK-10 renal = system: TK-10 renal
KM12 colon = system: KM12 colon
NCI-H460 lung = system: NCI-H460 lung
SN12C renal = system: SN12C renal
HCT-116 colon = system: HCT-116 colon
KM20L2 colon = system: KM20L2 colon
NCI-H23 lung = system: NCI-H23 lung
HL-60(TB) leukemia = system: HL-60(TB) leukemia
SK-MEL-28 melanoma = system: SK-MEL-28 melanoma
CCRF-CEM leukemia = system: CCRF-CEM leukemia
OVCAR-8 ovarian = system: OVCAR-8 ovarian
COLO 205 colon = system: COLO 205 colon
HT29 colon = system: HT29 colon
A549 NSCLC = system: A549 NSCLC
SF-268 CNS = system: SF-268 CNS
UO-31 renal = system: UO-31 renal
SNB-19 CNS = system: SNB-19 CNS
M19-MEL melanoma = system: M19-MEL melanoma
DLD-1 colon = system: DLD-1 colon
IGROV1 ovarian = system: IGROV1 ovarian
DMS 273 small cell lung = system: DMS 273 small cell lung
CAKI-1 renal = system: CAKI-1 renal
NCI-H522 lung = system: NCI-H522 lung
LXFL 529 NSCLC = system: LXFL 529 NSCLC
HCT-15 colon = system: HCT-15 colon
M14 melanoma = system: M14 melanoma
HOP-62 NSCLC = system: HOP-62 NSCLC
HOP-18 NSCLC = system: HOP-18 NSCLC
LOX IMVI melanoma = system: LOX IMVI melanoma
K-562 leukemia = system: K-562 leukemia
MOLT-4 leukemia = system: MOLT-4 leukemia
SK-MEL-5 melanoma = system: SK-MEL-5 melanoma
MALME-3M melanoma = system: MALME-3M melanoma
EKVX NSCLC = system: EKVX NSCLC
SW-620 colon = system: SW-620 colon
OVCAR-4 ovarian = system: OVCAR-4 ovarian
DMS 114 small cell lung = system: DMS 114 small cell lung
SNB-78 CNS = system: SNB-78 CNS
SNB-75 CNS = system: SNB-75 CNS
SF-295 CNS = system: SF-295 CNS
SF-539 CNS = system: SF-539 CNS
HCC-2998 colon = system: HCC-2998 colon
A498 renal = system: A498 renal
OVCAR-3 ovarian = system: OVCAR-3 ovarian
SR leukemia = system: SR leukemia
HOP-92 NSCLC = system: HOP-92 NSCLC
ACHN renal = system: ACHN renal
786-0 renal = system: 786-0 renal
OVCAR-5 ovarian = system: OVCAR-5 ovarian
RXF 393 renal = system: RXF 393 renal
UACC-257 melanoma = system: UACC-257 melanoma
UACC-62 melanoma = system: UACC-62 melanoma

## CC(=O)[O-].CCN(CC)c1ccc(C=NCCN=Cc2ccc(N(CC)CC)cc2[O-])c([O-])c1.[Mn+3]
NCI-H226 lung
  GI50: 64.4 µM
  TGI: > 100 µM
U251 CNS
  GI50: 15.4 µM
  TGI: 29.3 µM
TK-10 renal
  GI50: 56.6 µM
  TGI: > 100 µM
KM12 colon
  GI50: 17.8 µM
  TGI: 33.7 µM
NCI-H460 lung
  GI50: 21.3 µM
  TGI: 43.5 µM
SN12C renal
  GI50: 20.9 µM
  TGI: 48.8 µM
HCT-116 colon
  GI50: 18.5 µM
  TGI: 33.3 µM
KM20L2 colon
  GI50: 17.8 µM
  TGI: 33.2 µM
NCI-H23 lung
  GI50: 19.7 µM
  TGI: 37.6 µM
HL-60(TB) leukemia
  GI50: 17.6 µM
  TGI: 38.3 µM
SK-MEL-28 melanoma
  GI50: 19.2 µM
  TGI: 37.8 µM
CCRF-CEM leukemia
  GI50: 42 µM
  TGI: > 100 µM
OVCAR-8 ovarian
  GI50: 24.5 µM
  TGI: 57 µM
COLO 205 colon
  GI50: 18.6 µM
  TGI: 32.8 µM
HT29 colon
  GI50: 19.9 µM
  TGI: 40.1 µM
A549 NSCLC
  GI50: 34.5 µM
  TGI: > 100 µM
SF-268 CNS
  GI50: 23.8 µM
  TGI: 52.7 µM
UO-31 renal
  GI50: > 100 µM
  TGI: > 100 µM
SNB-19 CNS
  GI50: 19.9 µM
  TGI: 42.8 µM
M19-MEL melanoma
  GI50: 17.7 µM
  TGI: 32.4 µM
DLD-1 colon
  GI50: 55.2 µM
  TGI: > 100 µM
IGROV1 ovarian
  GI50: 29.6 µM
  TGI: 80.3 µM
DMS 273 small cell lung
  GI50: 22.4 µM
  TGI: 45.8 µM
CAKI-1 renal
  GI50: > 100 µM
  TGI: > 100 µM
NCI-H522 lung
  GI50: 43.3 µM
  TGI: 61.9 µM
LXFL 529 NSCLC
  GI50: 22.5 µM
  TGI: 44.1 µM
HCT-15 colon
  GI50: > 100 µM
  TGI: > 100 µM
M14 melanoma
  GI50: 19.2 µM
  TGI: 35.5 µM
HOP-62 NSCLC
  GI50: 19.2 µM
  TGI: 39.1 µM
HOP-18 NSCLC
  GI50: 18.7 µM
  TGI: 35.5 µM
LOX IMVI melanoma
  GI50: 20.3 µM
  TGI: 37.6 µM
K-562 leukemia
  GI50: 22.9 µM
  TGI: 61.3 µM
MOLT-4 leukemia
  GI50: 36.5 µM
  TGI: > 100 µM
SK-MEL-5 melanoma
  GI50: 19 µM
  TGI: 33.9 µM
MALME-3M melanoma
  GI50: 18.4 µM
  TGI: 35.2 µM
EKVX NSCLC
  GI50: 39.6 µM
  TGI: > 100 µM
SW-620 colon
  GI50: 27.4 µM
  TGI: 66.4 µM
OVCAR-4 ovarian
  GI50: 37.3 µM
  TGI: > 100 µM
DMS 114 small cell lung
  GI50: 19.6 µM
  TGI: 35.8 µM
SNB-78 CNS
  GI50: 45.1 µM
  TGI: > 100 µM
SNB-75 CNS
  GI50: 22.1 µM
  TGI: 58.2 µM
SF-295 CNS
  GI50: 27.7 µM
  TGI: 71.8 µM
SF-539 CNS
  GI50: 20.9 µM
  TGI: 37.4 µM
HCC-2998 colon
  GI50: 19.7 µM
  TGI: 35.9 µM
A498 renal
  GI50: 22.9 µM
  TGI: 53.1 µM
OVCAR-3 ovarian
  GI50: 21 µM
  TGI: 44.1 µM
SR leukemia
  GI50: 22.3 µM
  TGI: 67.4 µM
HOP-92 NSCLC
  GI50: 38.3 µM
  TGI: 93.9 µM
ACHN renal
  GI50: > 100 µM
  TGI: > 100 µM
786-0 renal
  GI50: 38.7 µM
  TGI: > 100 µM
OVCAR-5 ovarian
  GI50: 21.3 µM
  TGI: 41 µM
RXF 393 renal
  GI50: 20.5 µM
  TGI: 46.5 µM
UACC-257 melanoma
  GI50: 23 µM
  TGI: 55.5 µM
UACC-62 melanoma
  GI50: 25.7 µM
  TGI: 57.5 µM
